According to PMC3789257 (Journal of the American Chemical Society, 2012):

How the values were obtained:
p53 mutant Y220C [1] = details: binding to the mutation-induced crevice; cited from earlier work
p53 mutant Y220C [2] = details: in vitro; cited from earlier work
T-p53-Y220C = T-p53-Y220C (Homo sapiens, UniProt P04637, M133L/N239Y/N268D/V203A/Y220C); test: 1H/15N-HSQC NMR titration; type: binding; details: 20 °C, 75 μM protein
T-p53C-Y220C = T-p53C-Y220C (Homo sapiens, UniProt P04637, M133L/N239Y/N268D/V203A/Y220C); test: Isothermal titration calorimetry; type: binding
Chain of T-p53C-Y220C (P04637 102-292 limits assumed, stated change not applied): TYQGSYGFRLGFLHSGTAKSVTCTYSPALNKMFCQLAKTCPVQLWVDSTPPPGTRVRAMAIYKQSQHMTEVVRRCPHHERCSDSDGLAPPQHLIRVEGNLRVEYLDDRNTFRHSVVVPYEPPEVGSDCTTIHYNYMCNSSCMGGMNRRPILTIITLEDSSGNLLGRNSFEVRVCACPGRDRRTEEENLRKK

Chain of T-p53-Y220C (P04637 102-292 limits assumed, stated change not applied): as the sequence (P04637 102-292 limits assumed, stated change not applied) above

| Compound | Kd (p53 mutant Y220C [1]) [µM] | effect on melting temperature of the protein (p53 mutant Y220C [2]) | Kd (T-p53-Y220C) [µM] | Kd (T-p53C-Y220C) [µM] |
| --- | --- | --- | --- | --- |
| CCn1c2ccccc2c2cc(CNC)ccc21 [PhiKan083] | 150 | raises the melting temperature |  |  |
| CN1CCC(N(C)Cc2cc(I)cc(I)c2O)CC1 [compound 3, 2,4-diiodo-6-((methyl(1-methylpiperidin-4-yl)amino)methyl)phenol] |  |  | 184 ± 23 | 225 |
